From US5328906A, “0-(3-amino-2-hydroxypropyl)-hydroximic acid halides and process for preparing the same” (Biorex Kutato-Fejleszto KFT, priority 1993, dated 1994)

How the values were obtained:
[1] = acute toxicity LD50 on Wistar rats; details: rat, in vivo, iv
diabetic aorta = test: beta-blocking effect on diabetic (Streptosotocin treated) rat aorta spiral and/or ring preparate, noradrenalin contractions; details: aorta spiral of diabetic animals treated with Streptosotocin
Method: (§1) The beta-blocking effect of the compounds according to the present invention was tested on rat aorta spiral and/or ring preparate <J. Pharmacol. Exp. Therap. 158, 531 (1967)>. The experimental diabetes was induced with Streptosotocin <2-(3-nitroso-3-methylureido)-2-deoxy-D-glucose>. The reaction was evaluated as positive when the alpha stimulating effect of the noradrenalin on the control preparate, i.e. that having not been treated with Streptosotocin, was not influenced, but protected on the diabetic aorta. In the tests carried out with the compounds according to the present invention a general selective effect occurred, manifesting in case of diabetic tests in a strong, in case of normal tests in the absence of or in the presence of only a slight beta-blocking effect.
Experiments were carried out to study whether on the aorta spiral preparates of diabetic animals treated with Streptosotocin the Inderal protects the contractions induced by noradrenalin. As control, animals previously not treated with Streptosotocin were used. The results obtained essentially conformed to those known from the literature <Amer. […] (Endocrinology. Vol. 93, No. 3, September 1973). […]

[2] = test system: control preparate (rat aorta); test: beta-blocking effect on control (not Streptosotocin treated) rat aorta spiral and/or ring preparate, noradrenalin contractions; details: aorta spiral of animals not treated with Streptosotocin (normal tests)
Method: as §1
Experiments were carried out to study whether on the aorta spiral preparates of diabetic animals treated with Streptosotocin the Inderal protects the contractions induced by noradrenalin. As control, animals previously not treated with Streptosotocin were used. The results obtained essentially conformed to those known from the literature <Amer. […] (Endocrinology. Vol. 93, No. 3, September 1973).

Structure (SMILES) | LD50 [1] | protection against the alpha stimulating effect (contractions) of noradrenalin (diabetic aorta) | protection against the alpha stimulating effect (contractions) of noradrenalin [2]
OC(CON=C(Cl)c1cccnc1)CN1CCCCC1 (stereo not drawn) [Example 5, O-(3-piperidino-2-hydroxy-propyl)-3-piridyl-hydroximic acid chloride] | 110 mg/kg |  | 
CC(C)NCC(O)COc1cccc2ccccc12 (stereo not drawn) [Inderal, 1-isopropylamino-3-(naphtyloxy)-propan-2-ol] |  | the alpha stimulating effect of noradrenalin was protected by the Inderal in diabetic tests | not in the normal tests
